What all share (format): biochemical
The target in one assay is Human DNA Pol β (Homo sapiens, UniProt P06746). In words: Enzyme assay with human DNA polymerase β.
The target in another assay is VZV DNA polymerase (Varicella-zoster virus, UniProt P09252). In words: Enzyme assay with VZV DNA polymerase.
The target of the next assay is T1, Human DNA Pol α (Homo sapiens, UniProt P09884).
T1 sequence (P09884 1-1462): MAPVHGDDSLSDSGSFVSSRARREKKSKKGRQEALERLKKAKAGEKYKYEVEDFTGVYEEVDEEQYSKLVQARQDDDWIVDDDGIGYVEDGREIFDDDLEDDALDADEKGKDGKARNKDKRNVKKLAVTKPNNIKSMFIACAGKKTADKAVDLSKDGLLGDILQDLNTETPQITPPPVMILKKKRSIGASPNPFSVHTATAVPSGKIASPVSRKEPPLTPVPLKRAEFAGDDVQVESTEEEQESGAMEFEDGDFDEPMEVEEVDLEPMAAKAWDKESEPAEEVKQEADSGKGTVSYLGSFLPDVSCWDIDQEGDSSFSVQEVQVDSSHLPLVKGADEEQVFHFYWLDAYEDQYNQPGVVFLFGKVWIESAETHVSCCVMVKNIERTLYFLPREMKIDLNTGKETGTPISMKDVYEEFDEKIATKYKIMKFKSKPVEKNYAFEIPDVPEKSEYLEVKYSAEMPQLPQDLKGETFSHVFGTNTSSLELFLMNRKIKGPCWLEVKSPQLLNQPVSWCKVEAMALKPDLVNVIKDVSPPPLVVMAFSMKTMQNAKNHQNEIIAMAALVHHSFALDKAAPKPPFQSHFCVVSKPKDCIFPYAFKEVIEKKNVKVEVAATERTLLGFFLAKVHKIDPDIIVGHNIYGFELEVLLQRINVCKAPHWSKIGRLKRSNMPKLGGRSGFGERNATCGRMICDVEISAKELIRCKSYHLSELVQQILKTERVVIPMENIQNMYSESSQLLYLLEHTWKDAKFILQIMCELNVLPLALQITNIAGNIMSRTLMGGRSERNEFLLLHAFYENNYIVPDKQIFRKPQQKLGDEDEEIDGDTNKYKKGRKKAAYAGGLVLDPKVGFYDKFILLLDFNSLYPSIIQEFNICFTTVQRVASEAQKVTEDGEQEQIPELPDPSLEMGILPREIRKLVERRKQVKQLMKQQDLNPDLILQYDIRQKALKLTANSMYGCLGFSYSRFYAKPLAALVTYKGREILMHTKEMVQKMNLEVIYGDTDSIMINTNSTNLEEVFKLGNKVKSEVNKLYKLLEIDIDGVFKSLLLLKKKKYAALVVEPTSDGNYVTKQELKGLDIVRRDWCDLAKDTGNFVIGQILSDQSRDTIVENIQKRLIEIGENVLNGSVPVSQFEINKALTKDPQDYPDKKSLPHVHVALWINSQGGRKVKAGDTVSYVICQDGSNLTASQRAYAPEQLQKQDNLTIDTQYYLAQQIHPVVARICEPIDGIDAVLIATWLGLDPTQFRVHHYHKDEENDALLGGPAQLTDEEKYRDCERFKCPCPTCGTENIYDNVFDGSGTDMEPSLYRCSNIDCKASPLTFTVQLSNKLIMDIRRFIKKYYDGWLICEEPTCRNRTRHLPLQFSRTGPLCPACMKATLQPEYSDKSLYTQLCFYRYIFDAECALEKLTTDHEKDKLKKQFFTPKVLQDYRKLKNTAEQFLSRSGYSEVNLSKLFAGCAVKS
As to the kind of experiment: Enzyme assay with human DNA polymerase α.

Assay [1] concerns the target HCMV DNA polymerase (UL54) (Human cytomegalovirus, UniProt P08546). As to the kind of experiment: Enzyme assay with HCMV DNA polymerase. The following applies: for superior activity against HCMV DNA polymerase compared to thymine-α-CNP: ratio vs thymine-α-CNP; for IC50: activated calf thymus DNA, [3H]dTTP.
For another assay, the target named is HSV-1 DNA polymerase (Human herpesvirus 1, UniProt P04293). In words: Enzyme assay with HSV-1 DNA polymerase.
For the next assay, the target named is HIV-1 RT (Human immunodeficiency virus type 1 group M subtype B, UniProt P03366). As to the kind of experiment: HIV-1 reverse transcriptase assay with homopolymeric template/primers.
Where [2] appears, read: IC50 HIV-1 RT, poly rA.dT template/primer, [3H]dTTP.
[3] abbreviates: read-out: IC50 Human DNA Pol β, activated calf thymus DNA, [3H]dTTP.
The mark [4] stands for this setting: read-out: IC50 VZV DNA Pol, poly dA.oligo dT, [3H]dTTP.
[5] abbreviates: read-out: IC50 Human DNA Pol α, activated calf thymus DNA, [3H]dTTP.
The mark [6] stands for this setting: read-out: IC50 HSV-1 DNA Pol, activated calf thymus DNA, [3H]dTTP.
Where [7] appears, read: read-out: IC50 HIV-1 RT, poly rA.dT template/primer, [3H]dTTP.
The mark [8] stands for this setting: read-out: IC50 HIV-1 RT Poly rA.dT ([3H]dTTP), Table 7, Poly rA.dT, [3H]dTTP.
Setting [9] is: read-out: IC50 HIV-1 RT Poly rC.dG ([3H]dGTP), Poly rC.dG, [3H]dGTP.
Setting [10] is: read-out: IC50 HIV-1 RT Poly rI.dC ([3H]dCTP), Poly rI.dC, [3H]dCTP.
The mark [11] stands for this setting: read-out: IC50 HIV-1 RT Poly rU.dA ([3H]dATP), Poly rU.dA, [3H]dATP.

Like-named read-outs stand apart in the source and are kept apart here.

HSV-1 DNA polymerase, sequence (P04293 whole entry): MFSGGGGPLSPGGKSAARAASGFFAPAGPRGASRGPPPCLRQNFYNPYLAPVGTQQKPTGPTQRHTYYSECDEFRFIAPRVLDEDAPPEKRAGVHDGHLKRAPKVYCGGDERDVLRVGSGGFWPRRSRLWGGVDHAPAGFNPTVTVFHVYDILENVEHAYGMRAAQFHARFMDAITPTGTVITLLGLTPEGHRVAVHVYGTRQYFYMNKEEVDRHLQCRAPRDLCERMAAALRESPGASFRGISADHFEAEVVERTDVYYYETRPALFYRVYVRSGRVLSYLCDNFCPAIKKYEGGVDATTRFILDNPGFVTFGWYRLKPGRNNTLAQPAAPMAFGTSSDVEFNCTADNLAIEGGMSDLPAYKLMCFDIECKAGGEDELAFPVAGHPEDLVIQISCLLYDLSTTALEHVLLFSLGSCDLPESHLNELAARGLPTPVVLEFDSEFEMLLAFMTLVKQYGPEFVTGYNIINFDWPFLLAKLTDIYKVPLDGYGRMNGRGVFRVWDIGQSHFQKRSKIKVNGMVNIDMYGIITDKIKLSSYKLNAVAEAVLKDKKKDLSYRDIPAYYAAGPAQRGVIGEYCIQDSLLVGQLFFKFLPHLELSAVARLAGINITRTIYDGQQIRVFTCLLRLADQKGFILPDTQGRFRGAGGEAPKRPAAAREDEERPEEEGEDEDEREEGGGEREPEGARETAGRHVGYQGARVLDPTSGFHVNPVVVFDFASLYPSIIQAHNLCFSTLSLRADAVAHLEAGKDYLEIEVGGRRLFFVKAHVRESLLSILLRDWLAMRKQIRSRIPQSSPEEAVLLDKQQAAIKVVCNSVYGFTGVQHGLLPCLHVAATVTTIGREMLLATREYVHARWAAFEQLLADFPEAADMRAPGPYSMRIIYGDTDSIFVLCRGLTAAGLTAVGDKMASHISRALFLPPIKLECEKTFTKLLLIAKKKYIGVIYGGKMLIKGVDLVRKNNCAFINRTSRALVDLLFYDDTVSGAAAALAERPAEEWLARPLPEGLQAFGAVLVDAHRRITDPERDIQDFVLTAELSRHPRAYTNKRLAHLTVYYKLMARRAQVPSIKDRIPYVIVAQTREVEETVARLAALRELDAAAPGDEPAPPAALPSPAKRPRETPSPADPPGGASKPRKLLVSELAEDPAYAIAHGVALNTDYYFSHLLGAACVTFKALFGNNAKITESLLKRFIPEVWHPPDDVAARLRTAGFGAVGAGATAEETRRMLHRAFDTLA
HCMV DNA polymerase (UL54), sequence (P08546 whole entry): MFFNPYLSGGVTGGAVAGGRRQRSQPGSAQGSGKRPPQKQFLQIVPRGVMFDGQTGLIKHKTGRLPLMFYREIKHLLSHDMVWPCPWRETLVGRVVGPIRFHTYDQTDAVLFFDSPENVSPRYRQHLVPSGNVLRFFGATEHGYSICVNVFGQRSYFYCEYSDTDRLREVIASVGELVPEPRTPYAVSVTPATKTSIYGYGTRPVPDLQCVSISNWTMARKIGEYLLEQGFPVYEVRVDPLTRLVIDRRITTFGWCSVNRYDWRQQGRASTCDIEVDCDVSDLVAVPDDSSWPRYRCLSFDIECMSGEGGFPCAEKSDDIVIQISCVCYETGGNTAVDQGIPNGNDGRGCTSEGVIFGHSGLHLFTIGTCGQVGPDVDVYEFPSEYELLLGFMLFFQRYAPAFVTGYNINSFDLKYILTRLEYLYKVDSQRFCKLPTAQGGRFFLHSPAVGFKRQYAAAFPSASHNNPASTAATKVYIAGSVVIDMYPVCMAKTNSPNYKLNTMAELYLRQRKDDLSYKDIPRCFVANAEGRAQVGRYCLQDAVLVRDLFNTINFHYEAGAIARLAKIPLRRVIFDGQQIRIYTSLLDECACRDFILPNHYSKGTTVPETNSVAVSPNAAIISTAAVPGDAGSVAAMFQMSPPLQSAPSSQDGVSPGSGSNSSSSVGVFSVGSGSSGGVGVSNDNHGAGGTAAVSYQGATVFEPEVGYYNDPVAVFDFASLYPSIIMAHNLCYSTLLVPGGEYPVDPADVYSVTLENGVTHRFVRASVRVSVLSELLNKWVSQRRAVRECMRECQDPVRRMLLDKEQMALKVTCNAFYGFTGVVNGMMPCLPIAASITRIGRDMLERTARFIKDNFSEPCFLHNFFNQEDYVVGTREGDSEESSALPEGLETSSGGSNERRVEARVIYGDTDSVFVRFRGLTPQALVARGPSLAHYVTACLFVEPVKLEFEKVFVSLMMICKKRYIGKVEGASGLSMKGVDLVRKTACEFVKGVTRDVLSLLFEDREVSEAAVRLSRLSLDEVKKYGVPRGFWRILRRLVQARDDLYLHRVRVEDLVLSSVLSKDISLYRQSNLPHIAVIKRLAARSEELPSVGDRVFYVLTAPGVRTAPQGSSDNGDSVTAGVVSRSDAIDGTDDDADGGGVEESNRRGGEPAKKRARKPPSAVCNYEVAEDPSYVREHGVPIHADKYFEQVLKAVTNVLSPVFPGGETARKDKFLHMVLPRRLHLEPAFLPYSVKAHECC
VZV DNA polymerase, sequence (P09252 whole entry): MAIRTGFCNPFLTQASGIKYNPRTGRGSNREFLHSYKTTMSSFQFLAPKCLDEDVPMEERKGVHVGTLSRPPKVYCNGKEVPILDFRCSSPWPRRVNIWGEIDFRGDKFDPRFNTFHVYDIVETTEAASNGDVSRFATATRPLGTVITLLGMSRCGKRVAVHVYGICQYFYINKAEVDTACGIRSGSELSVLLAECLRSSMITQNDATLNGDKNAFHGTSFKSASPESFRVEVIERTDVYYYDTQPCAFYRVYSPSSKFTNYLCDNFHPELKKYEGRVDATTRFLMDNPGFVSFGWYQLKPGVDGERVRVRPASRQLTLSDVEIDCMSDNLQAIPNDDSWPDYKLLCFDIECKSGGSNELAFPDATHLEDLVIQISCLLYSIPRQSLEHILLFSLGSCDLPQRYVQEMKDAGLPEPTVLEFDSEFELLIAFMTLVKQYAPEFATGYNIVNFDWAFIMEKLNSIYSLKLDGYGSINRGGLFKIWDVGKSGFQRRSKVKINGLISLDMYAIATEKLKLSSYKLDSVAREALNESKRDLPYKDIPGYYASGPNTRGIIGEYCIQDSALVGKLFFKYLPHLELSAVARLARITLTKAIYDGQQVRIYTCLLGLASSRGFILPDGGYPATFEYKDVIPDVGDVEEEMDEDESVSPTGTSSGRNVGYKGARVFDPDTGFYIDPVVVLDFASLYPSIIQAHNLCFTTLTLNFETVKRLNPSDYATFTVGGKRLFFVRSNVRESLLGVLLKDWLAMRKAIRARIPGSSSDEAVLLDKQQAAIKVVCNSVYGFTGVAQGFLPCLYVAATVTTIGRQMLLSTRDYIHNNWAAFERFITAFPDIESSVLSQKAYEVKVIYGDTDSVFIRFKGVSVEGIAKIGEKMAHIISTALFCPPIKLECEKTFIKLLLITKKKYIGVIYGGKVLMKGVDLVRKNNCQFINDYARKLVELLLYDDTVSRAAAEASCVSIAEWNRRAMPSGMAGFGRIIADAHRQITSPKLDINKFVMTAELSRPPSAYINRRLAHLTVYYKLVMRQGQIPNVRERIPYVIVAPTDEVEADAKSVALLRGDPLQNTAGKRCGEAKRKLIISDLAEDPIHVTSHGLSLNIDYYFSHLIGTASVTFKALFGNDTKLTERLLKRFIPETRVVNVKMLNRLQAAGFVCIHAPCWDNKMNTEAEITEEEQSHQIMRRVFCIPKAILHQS

One may read the IC50 as the point on the concentration scale where inhibition reaches its midpoint. As for `Cc1cn(Cc2ccccc2COC(C(=O)O)P(=O)(O)O)c(=O)[nH]c1=O` (centres unmarked) [Compound 6d, 2-(2-((2,4-Dioxo-5-methyl-pyrimidin-1-yl)methyl)benzyloxy)-2-phosphonoacetic acid], the IC50 came to 76 ± 30 µM on Human DNA Pol β; 2.9 ± 0.7 µM at VZV DNA polymerase; 75 ± 18 µM against Human DNA Pol α; 7.5 ± 5 µM on HSV-1 DNA polymerase; 131 ± 86 µM against HIV-1 RT (setting [2]). For the same molecule, the “more active against VZV DNA polymerase than thymine-α-CNP” value on VZV DNA polymerase (ratio vs thymine-α-CNP) was 13 fold. The “superior activity against HCMV DNA polymerase compared to thymine-α-CNP” value (from here on “superior activity … compared to thymine-α-CNP”) in assay [1] is ~ 3 fold. The “more active against HSV-1 DNA polymerase than thymine-α-CNP” value on HSV-1 DNA polymerase (ratio vs thymine-α-CNP) was ~ 3 fold.
For `Nc1ncnc2c1ncn2[C@H]1CC[C@@H](COP(=O)(O)OP(=O)(O)OP(=O)(O)O)O1` [ddATP, reference compound], the IC50 on HIV-1 RT (IC50 HIV-1 RT Poly rA.dT ([3H]dTTP), Table 7, Poly rA.dT, [3H]dTTP) was more than 20 µM; at HIV-1 RT (IC50 HIV-1 RT Poly rC.dG ([3H]dGTP), Poly rC.dG, [3H]dGTP), more than 20 µM; at HIV-1 RT (IC50 HIV-1 RT Poly rI.dC ([3H]dCTP), Poly rI.dC, [3H]dCTP) it was more than 20 µM; at HIV-1 RT (IC50 HIV-1 RT Poly rU.dA ([3H]dATP), Poly rU.dA, [3H]dATP), 0.46 ± 0.12 µM.
As for `O=C(O)C(OC/C=C\Cn1cc(F)c(=O)[nH]c1=O)P(=O)(O)O` (stereo not drawn) [Compound 6i, 2-Cis-(4-(5-fluoro-2,4-dioxo-3,4-dihydropyrimidin-1(2H)-yl)but-2-enyloxy)-2-phosphonoacetic acid], the IC50 is more than 500 µM on Human DNA Pol β; 27 ± 2 µM at VZV DNA polymerase; 325 ± 4 µM against Human DNA Pol α; 30 ± 16 µM in assay [1] (IC50 HCMV DNA Pol); 24 ± 1 µM against HSV-1 DNA polymerase; more than 500 µM against HIV-1 RT (setting [2]).
On to `Cc1cn(Cc2cn(CCOC(C(=O)O)P(=O)(O)O)nn2)c(=O)[nH]c1=O` (centres unmarked) [Compound 6f, 2-(2-(4-((5-methyl-2,4-dioxo-3,4-dihydropyrimidin-1(2H)-yl)methyl)-1H-1,2,3-triazol-1-yl)ethoxy)-2-phosphonoacetic acid], for which the IC50 was 361 ± 160 µM against Human DNA Pol β; 24 ± 4 µM against VZV DNA polymerase; 332 ± 28 µM against Human DNA Pol α; 38 ± 6 µM in assay [1] (IC50 HCMV DNA Pol); 25 ± 21 µM against HSV-1 DNA polymerase; more than 500 µM at HIV-1 RT (setting [2]).
For the molecule `Cc1cn(C[C@H]2CCCC[C@H]2COC(C(=O)O)P(=O)(O)O)c(=O)[nH]c1=O` (relative stereo) [Compound 6e], the IC50 on Human DNA Pol β (setting [3]) was more than 500 µM; on VZV DNA polymerase (setting [4]), 16 ± 1 µM; at Human DNA Pol α (setting [5]), 69 ± 21 µM; in assay [1] (read-out: IC50 HCMV DNA Pol), 4 µM; at HSV-1 DNA polymerase (setting [6]) it was 8.6 ± 6.6 µM; on HIV-1 RT (setting [7]), not below 500 µM. In addition, the “superior activity … compared to thymine-α-CNP” value in assay [1] is listed as 8- to 13 fold.
In the case of `Nc1ccn([C@H]2CC[C@@H](COP(=O)(O)OP(=O)(O)OP(=O)(O)O)O2)c(=O)n1` [ddCTP, reference compound], the IC50 was more than 20 µM on HIV-1 RT (IC50 HIV-1 RT Poly rA.dT ([3H]dTTP)), more than 20 µM against HIV-1 RT (IC50 HIV-1 RT Poly rC.dG ([3H]dGTP)), 3.1 ± 2.2 µM against HIV-1 RT (IC50 HIV-1 RT Poly rI.dC ([3H]dCTP)) and more than 20 µM against HIV-1 RT (IC50 HIV-1 RT Poly rU.dA ([3H]dATP)).
As to `Cc1cn([C@H]2CC[C@@H](COP(=O)(O)OP(=O)(O)OP(=O)(O)O)O2)c(=O)[nH]c1=O` [ddTTP, reference compound], the IC50 was 0.05 ± 0.01 µM on HIV-1 RT (setting [8]), more than 20 µM on HIV-1 RT (setting [9]), more than 20 µM at HIV-1 RT (setting [10]) and more than 20 µM on HIV-1 RT (setting [11]).
With `Cc1cn(C[C@H]2C[C@H]2COC(C(=O)O)P(=O)(O)O)c(=O)[nH]c1=O` (relative stereo) [Compound 6b], the IC50 at Human DNA Pol β (setting [3]) worked out at 390 ± 127 µM; on VZV DNA polymerase (setting [4]), 12 ± 3 µM; on Human DNA Pol α (setting [5]) it was 183 ± 8 µM; in assay [1] (read-out: IC50 HCMV DNA Pol), 4.6 ± 0.2 µM; on HSV-1 DNA polymerase (setting [6]), 36 ± 12 µM; at HIV-1 RT (setting [7]), 440 ± 85 µM. The “superior activity … compared to thymine-α-CNP” value in assay [1] is given as 8- to 13 fold.
In the case of `O=c1[nH]c(=O)n([C@H]2C[C@H](O)[C@@H](COP(=O)(O)OP(=O)(O)OP(=O)(O)O)O2)cc1/C=C/Br` [BVDU-TP, (E)-5-(2-Bromovinyl)-2′-deoxyuridine-5′-triphosphate, reference compound], the 50% inhibitory concentration (IC50) on Human DNA Pol β came to 26 ± 4 µM; against VZV DNA polymerase it was 0.49 ± 0.09 µM; against Human DNA Pol α, 21 ± 10 µM; in assay [1] (IC50 HCMV DNA Pol), 3.6 ± 0.7 µM; at HSV-1 DNA polymerase, 1.9 ± 0.9 µM; against HIV-1 RT (setting [2]), 0.89 ± 0.4 µM.
For `Cc1cn(C[C@H]2CCC[C@H]2COC(C(=O)O)P(=O)(O)O)c(=O)[nH]c1=O` (relative stereo) [Compound 6a], the IC50 on Human DNA Pol β (setting [3]) is more than 500 µM; at VZV DNA polymerase (setting [4]) it was 73 ± 1 µM; at Human DNA Pol α (setting [5]), 165 ± 100 µM; in assay [1] (read-out: IC50 HCMV DNA Pol) it was 40 ± 25 µM; at HSV-1 DNA polymerase (setting [6]), 14 ± 14 µM; on HIV-1 RT (setting [7]), not below 500 µM.
`Cc1cn(C[C@H]2CC=CC[C@H]2COC(C(=O)O)P(=O)(O)O)c(=O)[nH]c1=O` (relative stereo) [Compound 6c]: the IC50 at Human DNA Pol β (setting [3]) was more than 500 µM; at VZV DNA polymerase (setting [4]) it was 8.5 ± 2.1 µM; at Human DNA Pol α (setting [5]), 48 ± 36 µM; in assay [1] (read-out: IC50 HCMV DNA Pol), 3 ± 0.5 µM; on HSV-1 DNA polymerase (setting [6]), 14 ± 3 µM; at HIV-1 RT (setting [7]) it was 425 ± 106 µM. For the same molecule, the “superior activity … compared to thymine-α-CNP” value in assay [1] is given as 8- to 13 fold.
Turning to `O=C(O)C(OCCCCn1cc(F)c(=O)[nH]c1=O)P(=O)(O)O` (centres unmarked) [Compound 6j, 2-(4-(5-Fluoro-2,4-dioxo-3,4-dihydropyrimidin-1(2H)-yl)butoxy)-2-phosphonoacetic acid], the IC50 was 306 ± 3 µM at Human DNA Pol β (setting [3]); 4.1 ± 0.9 µM at VZV DNA polymerase (setting [4]); 72 ± 52 µM on Human DNA Pol α (setting [5]); 9.4 ± 4.1 µM in assay [1] (read-out: IC50 HCMV DNA Pol); 6.7 ± 4.6 µM at HSV-1 DNA polymerase (setting [6]); 263 ± 69 µM on HIV-1 RT (setting [7]).
Turning to `Cc1cn(CCCCOC(C(=O)O)P(=O)(O)O)c(=O)[nH]c1=O` (centres unmarked) [Compound 6h, 2-(4-(2,4-Dioxo-5-methyl-pyrimidin-1-yl)butyloxy)-2-phosphonoacetic acid], the IC50 against Human DNA Pol β is 450 ± 105 µM; against VZV DNA polymerase, 27 ± 12 µM; at Human DNA Pol α, 301 ± 51 µM; against HSV-1 DNA polymerase, 45 ± 27 µM; at HIV-1 RT (setting [2]) it was 145 ± 106 µM.
With `Nc1nc2c(ncn2[C@H]2CC[C@@H](COP(=O)(O)OP(=O)(O)OP(=O)(O)O)O2)c(=O)[nH]1` [ddGTP, reference compound], the IC50 was more than 20 µM on HIV-1 RT (setting [8]), 0.26 ± 0.17 µM on HIV-1 RT (setting [9]), more than 20 µM at HIV-1 RT (setting [10]) and more than 20 µM on HIV-1 RT (setting [11]).

The values above are taken from article PMC4893804 (Journal of medicinal chemistry, 2015).
